Reference: patent US9586951B2 (FUJIFILM Corporation, priority 2013, dated 2017)

molecular target: T1, ATM (Homo sapiens, UniProt Q13315); test: ATM inhibition test (phosphorylation of Chk2 generated by ionizing radiation, AlphaScreen SureFire); format: cell-based; conditions: phosphorylated Chk2 in NCI-H460 cells, ionizing radiation 8Gy, 1 hour after test compound treatment; read-out: ATM inhibitory activity
T1 construct: detecting phosphorylation of Chk2 in a human non-small cell lung cancer cell line NCI-H460 (ATCC company); host or cells: NCI-H460 human non-small cell lung cancer cells
T1 sequence (Q13315 whole entry): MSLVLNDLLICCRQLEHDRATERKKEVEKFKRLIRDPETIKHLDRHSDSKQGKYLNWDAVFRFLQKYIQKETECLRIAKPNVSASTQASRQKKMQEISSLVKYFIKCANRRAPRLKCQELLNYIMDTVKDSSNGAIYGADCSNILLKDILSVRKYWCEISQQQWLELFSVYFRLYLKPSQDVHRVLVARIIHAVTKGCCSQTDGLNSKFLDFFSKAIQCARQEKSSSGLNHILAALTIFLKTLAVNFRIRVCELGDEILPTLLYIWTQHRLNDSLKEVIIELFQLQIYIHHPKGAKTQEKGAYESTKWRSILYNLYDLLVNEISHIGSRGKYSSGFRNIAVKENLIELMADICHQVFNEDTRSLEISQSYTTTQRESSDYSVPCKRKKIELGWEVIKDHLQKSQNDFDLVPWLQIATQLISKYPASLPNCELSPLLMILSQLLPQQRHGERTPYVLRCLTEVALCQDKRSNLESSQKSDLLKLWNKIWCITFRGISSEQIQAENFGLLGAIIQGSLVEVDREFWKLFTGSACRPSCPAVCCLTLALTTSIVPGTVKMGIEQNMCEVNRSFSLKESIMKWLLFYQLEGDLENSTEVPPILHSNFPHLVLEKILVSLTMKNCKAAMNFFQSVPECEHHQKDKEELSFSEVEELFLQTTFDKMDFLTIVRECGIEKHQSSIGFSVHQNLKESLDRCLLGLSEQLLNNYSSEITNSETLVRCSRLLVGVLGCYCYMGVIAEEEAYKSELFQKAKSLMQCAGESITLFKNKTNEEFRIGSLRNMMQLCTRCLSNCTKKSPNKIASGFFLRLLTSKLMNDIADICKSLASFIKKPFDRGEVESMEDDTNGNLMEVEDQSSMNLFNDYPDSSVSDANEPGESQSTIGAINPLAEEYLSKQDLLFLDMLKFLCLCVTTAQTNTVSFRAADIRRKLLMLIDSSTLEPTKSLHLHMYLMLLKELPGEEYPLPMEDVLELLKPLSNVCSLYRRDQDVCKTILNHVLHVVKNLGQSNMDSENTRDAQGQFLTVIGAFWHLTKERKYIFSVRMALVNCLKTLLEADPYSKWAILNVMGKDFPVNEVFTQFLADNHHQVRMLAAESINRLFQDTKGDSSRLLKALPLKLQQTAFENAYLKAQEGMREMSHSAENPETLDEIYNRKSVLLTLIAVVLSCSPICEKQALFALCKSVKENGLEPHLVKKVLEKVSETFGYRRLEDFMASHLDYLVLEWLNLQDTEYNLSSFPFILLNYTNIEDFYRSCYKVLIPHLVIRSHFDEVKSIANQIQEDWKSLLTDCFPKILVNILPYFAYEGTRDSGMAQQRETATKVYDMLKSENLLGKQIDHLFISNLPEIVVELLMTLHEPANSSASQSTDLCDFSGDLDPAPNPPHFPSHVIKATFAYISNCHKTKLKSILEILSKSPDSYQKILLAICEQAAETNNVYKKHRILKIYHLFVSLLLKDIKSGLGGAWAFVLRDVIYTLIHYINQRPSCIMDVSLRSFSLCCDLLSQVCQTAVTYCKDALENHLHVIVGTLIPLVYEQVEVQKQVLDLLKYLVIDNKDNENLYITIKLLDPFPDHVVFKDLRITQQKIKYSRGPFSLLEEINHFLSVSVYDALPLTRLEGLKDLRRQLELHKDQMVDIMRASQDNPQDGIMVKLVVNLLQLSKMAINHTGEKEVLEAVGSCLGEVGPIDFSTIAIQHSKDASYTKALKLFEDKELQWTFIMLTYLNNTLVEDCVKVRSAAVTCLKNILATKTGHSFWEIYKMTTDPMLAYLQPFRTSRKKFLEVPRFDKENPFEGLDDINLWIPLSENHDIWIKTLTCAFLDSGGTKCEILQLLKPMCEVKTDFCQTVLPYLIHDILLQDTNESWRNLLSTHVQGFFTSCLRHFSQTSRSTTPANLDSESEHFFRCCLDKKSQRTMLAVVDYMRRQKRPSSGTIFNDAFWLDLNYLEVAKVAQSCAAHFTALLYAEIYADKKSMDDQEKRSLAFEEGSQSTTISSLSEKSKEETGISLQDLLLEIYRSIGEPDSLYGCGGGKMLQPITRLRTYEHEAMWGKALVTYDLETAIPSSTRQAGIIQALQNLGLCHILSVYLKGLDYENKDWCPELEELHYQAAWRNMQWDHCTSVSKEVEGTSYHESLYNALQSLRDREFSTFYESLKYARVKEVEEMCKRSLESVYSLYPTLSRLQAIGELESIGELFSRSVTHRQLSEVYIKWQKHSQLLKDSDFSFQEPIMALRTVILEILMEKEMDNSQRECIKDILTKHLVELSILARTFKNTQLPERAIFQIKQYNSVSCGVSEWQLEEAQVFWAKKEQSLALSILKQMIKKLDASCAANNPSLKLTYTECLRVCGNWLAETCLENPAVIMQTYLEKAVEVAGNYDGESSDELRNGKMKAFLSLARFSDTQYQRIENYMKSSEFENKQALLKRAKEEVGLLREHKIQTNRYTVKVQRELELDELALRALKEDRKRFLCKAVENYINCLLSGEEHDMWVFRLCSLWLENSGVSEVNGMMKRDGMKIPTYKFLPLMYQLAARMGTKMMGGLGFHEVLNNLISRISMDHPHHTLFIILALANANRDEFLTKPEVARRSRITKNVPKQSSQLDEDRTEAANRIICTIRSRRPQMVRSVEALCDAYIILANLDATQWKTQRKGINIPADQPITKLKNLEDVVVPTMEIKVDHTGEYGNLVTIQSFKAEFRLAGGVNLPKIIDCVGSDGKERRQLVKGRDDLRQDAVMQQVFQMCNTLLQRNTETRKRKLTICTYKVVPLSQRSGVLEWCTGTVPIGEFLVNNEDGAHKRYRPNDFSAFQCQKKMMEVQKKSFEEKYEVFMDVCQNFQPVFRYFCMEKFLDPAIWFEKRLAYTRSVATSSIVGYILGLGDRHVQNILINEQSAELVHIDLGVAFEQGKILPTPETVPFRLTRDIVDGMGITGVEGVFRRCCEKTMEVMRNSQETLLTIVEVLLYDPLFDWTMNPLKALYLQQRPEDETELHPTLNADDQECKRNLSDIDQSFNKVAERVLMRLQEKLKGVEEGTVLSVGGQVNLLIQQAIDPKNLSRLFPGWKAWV
How it was run: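 In NCI-H460 cells, radiation-triggered Chk2 phosphorylation (8Gy, 1 h) is detected by AlphaScreen SureFire following 1 h compound exposure.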

| Compound | IC50 [nM] |
| --- | --- |
| CN(C)[C@H](CNc1ccc2c(c1)Sc1cccc(-c3cc(N4CCOCC4)cc(=O)[nH]3)c1S2)Cc1ccccc1 [Example 1-2-2, (S)-6-(7-((2-(dimethylamino)-3-phenylpropyl)amino)thianthren-1-yl)-4-morpholinopyridin-2(1H)-one] | 100 to 500 |
| Cc1ccc(CN2CCC(Nc3ccc4c(c3)Cc3cccc(-c5cc(N6CCOCC6)cc(=O)[nH]5)c3O4)CC2)cn1 [Example 2-28-10, 6-(7-((1-((6-Methylpyridin-3-yl)methyl)piperidin-4-yl)amino)-9H-xanthen-4-yl)-4-morpholino pyridin-2(1H)-one] | 100 to 500 |
| CN(C)c1nccc(CNc2ccc3c(c2)Sc2cccc(-c4cc(N5CCOCC5)cc(=O)[nH]4)c2S3)n1 [Example 1-12-40, 6-(7-(((2-(Dimethylamino)pyrimidin-4-yl)methyl)amino)thianthren-1-yl)-4-morpholino pyridin-2(1H)-one] | 100 to 500 |
| CC(C)Nc1cncc(CNc2ccc3c(c2)Sc2cccc(-c4cc(N5CCOCC5)cc(=O)[nH]4)c2O3)c1 [Example 4-8-26] | 100 to 500 |
| O=c1cc(N2CCOCC2)cc(-c2ccc(F)c3c2Oc2ccc(NCc4cccc(Cl)n4)cc2C3)[nH]1 [Example 2-44-1, 6-(7-(((6-Chloropyridin-2-yl)methyl)amino)-1-fluoro-9H-xanthen-4-yl)-4-morpholinopyridin-2(1H)-one] | 100 to 500 |
| O=c1cc(N2CCOCC2)cc(-c2cccc3c2Sc2ccc(NCc4ccsc4)cc2S3)[nH]1 [Example 1-12-1, 4-morpholino-6-(7-((thiophen-3-ylmethyl)amino)thianthren-1-yl)pyridin-2(1H)-one] | 100 to 500 |
| Cc1ccc(C(Nc2ccc3c(c2)Sc2cccc(-c4cc(N5CCOCC5)cc(=O)[nH]4)c2S3)C2CCN(C)C2)nc1 (single isomer, unassigned) [Example 10-3-5] | < 100 |
| O=c1cc(N2CCOCC2)cc(-c2cccc3c2Sc2ccc(NC4CCCN(C5CCOCC5)C4)cc2S3)[nH]1 (stereo not shown) [Example 1-24-7, 4-Morpholino-6-(7-((1-(tetrahydro-2H-pyran-4-yl)piperidin-3-yl)amino)thianthren-1-yl)pyridin-2 (1H)-one] | 100 to 500 |
| COc1ccc(CCN2CCCC(Nc3ccc4c(c3)Sc3cccc(-c5cc(N6CCOCC6)cc(=O)[nH]5)c3O4)CC2)cc1 (stereo not shown) [Example 4-7, 6-(8-((1-(4-Methoxyphenethyl)azepan-4-yl)amino)phenoxathiin-4-yl)-4-morpholinopyridin-2(1H)-one] | 100 to 500 |
| O=c1cc(N2CCOCC2)cc(-c2cccc3c2Sc2ccc(NC4CCCN(Cc5ccccn5)C4)cc2S3)[nH]1 (stereo not shown) [Example 1-24-3, 4-Morpholino-6-(7-((1-(pyridin-2-ylmethyl)piperidin-3-yl)amino)thianthren-1-yl)pyridin-2 (1H)-one] | 100 to 500 |
| COc1cc(CNc2ccc3c(c2)Sc2cccc(-c4cc(N5CCOCC5)cc(=O)[nH]4)c2O3)ccn1 [Example 4-8-4, 6-(8-(((2-Methoxypyridin-4-yl)methyl)amino)phenoxathiin-4-yl)-4-morpholino pyridin-2(1H)-one] | 100 to 500 |
| Cc1cncc(C(C)Nc2ccc3c(c2)Cc2cccc(-c4cc(N5CCOCC5)cc(=O)[nH]4)c2O3)c1 (single isomer, unassigned) [Example 2-14-88-2, 6-(7-((1-(5-methylpyridin-3-yl)ethyl)amino)-9H-xanthen-4-yl)-4-morpholinopyridin-2(1H)-one] | 100 to 500 |
| O=c1cc(N2CCOCC2)cc(-c2cccc3c2Oc2ccc(N[C@H]4CCN(Cc5ccccc5)C[C@@H]4O)cc2C3)[nH]1 (relative stereo) [Example 2-33, 6-(7-((trans-1-benzyl-3-hydroxypiperidin-4-yl)amino)-9H-xanthen-4-yl)-4-morpholinopyridin-2(1H)-one] | 100 to 500 |
| CC(CN1CCOCC1)Nc1ccc2c(c1)Sc1cccc(-c3cc(N4CCOCC4)cc(=O)[nH]3)c1S2 (single isomer, unassigned) [Example 1-13-2-3, 4-morpholino-6-(7-((1-morpholinopropan-2-yl)amino)thianthren-1-yl)pyridin-2(1H)-one] | 100 to 500 |
| CCC(Nc1ccc2c(c1)Sc1cccc(-c3cc(N4CCOCC4)cc(=O)[nH]3)c1S2)[C@@H](N)CC (stereo partly drawn) [Example 1-20-6, 6-(7-(((4S)-4-Aminohexan-3-yl)amino)thianthren-1-yl)-4-morpholino pyridin-2(1H)-one] | 100 to 500 |
| O=c1cc(N2CCOCC2)cc(-c2cccc3c2Sc2ccc(NCC4CCN(Cc5cccnc5)CC4)cc2S3)[nH]1 [Example 1-11, 4-morpholino-6-(7-(((1-(pyridin-3-ylmethyl)piperidin-4-yl)methyl)amino)thianthren-1-yl)pyridin-2(1H)-one] | 100 to 500 |
| COc1ncccc1CNc1ccc2c(c1)Sc1cccc(-c3cc(N4CCOCC4)cc(=O)[nH]3)c1O2 [Example 4-8-9, 6-(8-(((2-Methoxypyridin-3-yl)methyl)amino)phenoxathiin-4-yl)-4-morpholino pyridin-2 (1H)-one] | 100 to 500 |

| Compound | IC50 [nM] |
| --- | --- |
| CC1CC(Nc2ccc3c(c2)Cc2cccc(-c4cc(N5CCOCC5)cc(=O)[nH]4)c2O3)CCN1CCc1ccccc1 (stereo not shown) [Example 2-19-1, 6-(7-((2-Methyl-1-phenethylpiperidin-4-yl)amino)-9H-xanthen-4-yl)-4-morpholinopyridin-2(1H)-one] | 100 to 500 |
| O=c1cc(N2CCOCC2)cc(-c2cccc3c2Sc2ccc(NCCN4CCCC4)cc2S3)[nH]1 [Example 1-10-11] | 100 to 500 |
| CN(C)CCN1CCC(Nc2ccc3c(c2)Sc2cccc(-c4cc(N5CCOCC5)cc(=O)[nH]4)c2S3)CC1 [Example 1-29-2, 6-(7-((1-(2-(Dimethylamino)ethyl)piperidin-4-yl)amino)thianthren-1-yl)-4-morpholinopyridin-2(1H)-one] | 100 to 500 |
| Cc1ccc(C(CCN(C)CCCN(C)C)Nc2ccc3c(c2)Sc2cccc(-c4cc(N5CCOCC5)cc(=O)[nH]4)c2S3)nc1 (single isomer, unassigned) [Example 10-5-2, 6-(7-((3-((3-(Dimethylamino)propyl)(methyl)amino)-1-(5-methylpyridin-2-yl)propyl)amino)thianthren-1-yl)-4-morpholinopyridin-2(1H)-one] | 100 to 500 |
| Cc1cc(C)nc(CNc2ccc3c(c2)Cc2cccc(-c4cc(N5CCOCC5)cc(=O)[nH]4)c2O3)c1 [Example 2-14-15, 6-(7-(((4,6-Dimethylpyridin-2-yl)methyl)amino)-9H-xanthen-4-yl)-4-morpholino pyridin-2 (1H)-one] | 100 to 500 |
| Cn1cc(-c2cc(CNc3ccc4c(c3)Cc3cccc(-c5cc(N6CCOCC6)cc(=O)[nH]5)c3O4)ccn2)cn1 [Example 2-4, 6-(7-(((2-(1-methyl-1H-pyrazol-4-yl)pyridin-4-yl)methyl)amino)-9H-xanthen-4-yl)-4-morpholinopyridin-2(1H)-one] | < 100 |
| O=c1cc(N2CCOCC2)cc(-c2cccc3c2Oc2ccc(NCCc4cccnc4)cc2C3)[nH]1 [Example 2-12, 4-morpholino-6-(7-((2-(pyridin-3-yl)ethyl)amino)-9H-xanthen-4-yl)pyridin-2(1H)-one] | 100 to 500 |
| CCN1CCN(CC(C)Nc2ccc3c(c2)Sc2cccc(-c4cc(N5CCOCC5)cc(=O)[nH]4)c2S3)CC1 (stereo not shown) [Example 1-13-13, 6-(7-((1-(4-Ethylpiperazin-1-yl)propan-2-yl)amino)thianthren-1-yl)-4-morpholino pyridin-2(1H)-one] | 100 to 500 |
| CC(Nc1ccc2c(c1)Sc1cccc(-c3cc(N4CCOCC4)cc(=O)[nH]3)c1S2)c1ccnc(C#N)n1 (stereo not shown) [Example 1-12-82, 4-(1-((6-(4-Morpholino-6-oxo-1,6-dihydropyridin-2-yl)thianthren-2-yl)amino)ethyl) pyrimidine-2-carbonitrile] | 100 to 500 |
| CC(Nc1ccc2c(c1)Cc1cccc(-c3cc(N4CCOCC4)cc(=O)[nH]3)c1O2)c1nccc(CF)n1 (stereo not shown) [Example 2-14-64, 6-(7-((1-(4-(Fluoromethyl)pyrimidin-2-yl)ethyl)amino)-9H-xanthen-4-yl)-4-morpholino pyridin-2(1H)-one] | 100 to 500 |
| CC(CNc1ccc2c(c1)Sc1cccc(-c3cc(N4CCOCC4)cc(=O)[nH]3)c1S2)N1CCOCC1 (single isomer, unassigned) [Example 1-9-2-2, 4-morpholino-6-(7-((2-morpholinopropyl)amino)thianthren-1-yl)pyridin-2(1H)-one] | 100 to 500 |
| O=c1cc(N2CCOCC2)cc(-c2cccc3c2Oc2ccc(NCc4cccc(C(F)(F)F)c4)cc2C3)[nH]1 [Example 2-3-14, 4-Morpholino-6-(7-((3-(trifluoromethyl)benzyl)amino)-9H-xanthen-4-yl) pyridin-2(1H)-one] | 100 to 500 |
| Cc1cccc(CNc2ccc3c(c2)Cc2cccc(-c4nc(N5CCOCC5)cc(=O)[nH]4)c2O3)n1 [Example 2-52-1, 2-(7-(((6-Methylpyridin-2-yl)methyl)amino)-9H-xanthen-4-yl)-6-morpholino pyrimidine-4(3H)-one] | 100 to 500 |
| CCN(CC)CCNc1ccc2c(c1)Cc1cccc(-c3cc(N4CCOCC4)cc(=O)[nH]3)c1S2 [Example 3-4-4, 6-(7-((2-(Diethylamino)ethyl)amino)-9H-thioxanthen-4-yl)-4-morpholino pyridin-2(1H)-one] | 500 to 2000 |
| Cn1cc(CNc2ccc3c(c2)Cc2cccc(-c4cc(N5CCOCC5)cc(=O)[nH]4)c2O3)ccc1=O [Example 2-2-45, 1-Methyl-5-(((5-(4-morpholino-6-oxo-1,6-dihydropyridin-2-yl)-9H-xanthen-2-yl)amino)methyl) pyridin-2(1H)-one] | 500 to 2000 |
| CCOc1ccc(CNc2ccc3c(c2)Cc2cccc(-c4cc(N5CCOCC5)cc(=O)[nH]4)c2O3)cn1 [Example 2-2-23, 6-(7-(((6-Ethoxypyridin-3-yl)methyl)amino)-9H-xanthen-4-yl)-4-morpholino pyridin-2(1H)-one] | 100 to 500 |
| O=c1cc(N2CCOCC2)cc(-c2cccc3c2Sc2ccc(NCCN4CCSCC4)cc2S3)[nH]1 [Example 1-16-4, 4-Morpholino-6-(7-((2-thiomorpholinoethyl)amino)thianthren-1-yl)pyridin-2(1H)-one] | < 100 |
